Experimental data from US20100120788A1, “IDENTIFICATION OF POLYNUCLEOTIDES FOR […] OF COMPOUNDS THAT […] WITH AND/OR MODULATE PROTEIN TYROSINE KINASES AND/OR PROTEIN TYROSINE KINASE […] IN PROSTATE CELLS” (Bristol-Myers Squibb Company, priority 2007, published 2010).

Key:
[1] = tested on: PWR1E, RWPE2, PC3, DU145 and LNCaP cells; assay: Microarray gene expression profiling of drug-treated vs mock-treated cell lines (genes modulated by BMS-A); assay type: cell-based, human
Method: (§1) AFFYMETRIX® HG-U133v2 gene chips containing ˜22,000 probe sets were used for gene expression profiling (Affymetrix, Santa Clara, Calif.). Total RNA was isolated from the cells using the RNeasy kits (Qiagen, Valencia, Calif.). The quality of the RNA was assessed using an Agilent 2100 Bioanalyzer (Agilent, Santa Clara, Calif.). Ten μg of total RNA was used for the preparation of biotin-labeled cRNA. Chip hybridization, scanning and data acquisition were performed according to the Expression Analysis Technical Manual provided by the manufacturer.
(§2) The raw expression data were normalized using an RMA algorithm and analyzed in PARTEK® Discovery Suite software (Partek, St Louis, Mo.). Two statistical analyses including 1-way ANOVA for comparison of gene expression between sensitive and resistant cell line groups, and Pearson correlation between gene expression level and log2IC50 values were performed to identify genes whose baseline expression levels correlated with the sensitivity to dasatinib in 16 prostate cell lines (p value<0.05 in both analyses). […] ESTs and gene duplicates were eliminated from the final list. Gene expression profiles of drug treated (100 nM for 2 days) cell lines were compared with those of DMSO control using paired t-test (p value<0.05). Clustering analysis was performed using GeneCluster software and heatmaps were generated with red and green indicating high or low expression respectively.

[2] = tested on: secreted uPA protein in PC3 cells; assay: uPA protein ELISA assay of culture medium; assay type: cell-based, human; details: different doses, 24 h, per 50,000 viable cells
Text: FIG. 3. PLAU gene expression and regulation by dasatinib analyzed at mRNA and protein levels. (A) Differential baseline expression of PLAU gene between resistant (R, in black) and sensitive (S, in red) cell lines. The X-values are the expression level in log2-scale. The resistant cell line expressing high level of PLAU was WPMY1 and the sensitive cell line expressing low level of PLAU was LNCaP. (B) Down-regulation of PLAU mRNA level by dasatinib-treatment in 5 sensitive cell lines. The cells were treated with 100 nM dasatinib (+D) or DMSO (Ctrl) for 48 hours. The p value was 0.048 in paired t-test, indicating a significant reduction of PLAU mRNA following dasatinib treatment. (C) Correlation between dasatinib-induced PLAU mRNA down-regulation with the sensitivity of cell lines to dasatinib. […] The amount of uPA protein secreted into the culture medium by 50,000 viable cells was assessed by ELISA assay. […]
Cell were seeded in 24-well plates at density of 25,000 cells/well. […] Total number of cells were also quantitated using a cell counter, and the number of viable cells were assessed with Trypan Blue. The amount of uPA protein in the supernatant was determined using the uPA ELISA kit (America Diagnostica, Stamford, Conn.), and the concentrations of uPA secreted by 50,000 viable cells into the medium were calculated.

PLAU mRNA = assay: Down-regulation of PLAU mRNA expression by dasatinib; assay type: cell-based, human; details: for reduction of PLAU mRNA expression: 100 nM, 48 hours vs DMSO
Text: FIG. 3. PLAU gene expression and regulation by dasatinib analyzed at mRNA and protein levels. (A) Differential baseline expression of PLAU gene between resistant (R, in black) and sensitive (S, in red) cell lines. The X-values are the expression level in log2-scale. The resistant cell line expressing high level of PLAU was WPMY1 and the sensitive cell line expressing low level of PLAU was LNCaP. (B) Down-regulation of PLAU mRNA level by dasatinib-treatment in 5 sensitive cell lines. The cells were treated with 100 nM dasatinib (+D) or DMSO (Ctrl) for 48 hours. The p value was 0.048 in paired t-test, indicating a significant reduction of PLAU mRNA following dasatinib treatment. (C) Correlation between dasatinib-induced PLAU mRNA down-regulation with the sensitivity of cell lines to dasatinib. In addition to those 5 sensitive cells, three dasatinib-resistant cell lines 22Rv, MDAPCa2b, and VCaP were also treated with dasatinib same as in FIG. 3B. The extent of PLAU down-regulation by dasatinib (Y-axis) was negatively correlated with the log2IC50 values (X-axis) of these 8 cell lines. (D) Dose-dependent down-regulation of PLAU mRNA expression in PC3 cells. Cells were treated with or without different concentrations of dasatinib for 4 or 24 hours. The PLAU expression level relative to control was shown in Y-axis. (E) Dose-dependent inhibition of secreted uPA protein in PC3 cells by dasatinib but not by TAXOL®. Cells were treated with different doses of dasatinib, TAXOL® or DMSO for 24 hours. The amount of uPA protein secreted into the culture medium by 50,000 viable cells was assessed by ELISA assay.
The down-regulation of PLAU mRNA expression by dasatinib was observed (FIG. 3B).
as §1, §2

PC3 xenograft tumors = assay: PC3 xenograft tumor growth; assay type: in vivo, nu/nu athymic mice; details: 15 or 30 mg/kg orally twice a day, 5-day-on 2-day-off, 20 doses
Method: FIG. 5. […] Xenograft tumors were established subcutaneously in nu/nu athymic mice. The mice were divided into three groups each with 8 mice after tumors had reached approximately 200 mg. […] Dasatinib was administered orally twice a day on a 5-day-on 2-day-off schedule for 20 doses. The tumor size measurement and blood sampling were performed prior to treatment and weekly for two weeks after treatment initiation. […] Experiments were performed as described in Example 2.
The mice were divided into three groups each with 8 mice after tumors had reached approximately 200 mg. […] Dasatinib was administered orally twice a day on a 5-day-on 2-day-off schedule for 20 doses. The tumor size measurement and blood sampling were performed prior to treatment and weekly for two weeks after treatment initiation. Tumor weight was determined using the following equation: tumor weight=(length*width^2)/2.

[3] = 100 nM for 2 days vs DMSO control, paired t-test p<0.05, 5 sensitive cell lines

Cc1nc(Nc2ncc(C(=O)Nc3c(C)cccc3Cl)s2)cc(N2CCN(CCO)CC2)n1 [BMS-A, N-(2-chloro-6-methylphenyl)-2-[[6-[4-(2-hydroxyethyl)-1-piperazinyl]-2-methyl-4-pyrimidinyl]amino]-5-thiazolecarboxamide]
dramatic: reduction of PLAU mRNA level, multiple-dose treatment study (PLAU mRNA; PC3 cells, 24 h, dose-dependent)
inhibited: PC3 xenograft tumor growth (PC3 xenograft tumors)
Decreased: Modulated by BMS-A: ANXA3 (annexin A3) expression [1, 3] | Modulated by BMS-A: ARNTL2 expression [1, 3] | Modulated by BMS-A: AXL expression [1, 3] | Modulated by BMS-A: CST6 (cystatin E/M) expression [1, 3] | Modulated by BMS-A: EREG (epiregulin) expression [1, 3] | Modulated by BMS-A: FHL2 expression [1, 3] | Modulated by BMS-A: LAMC2 (laminin, gamma 2) expression [1, 3] | Modulated by BMS-A: PLAU (plasminogen activator, urokinase) expression [1, 3] | Modulated by BMS-A: SCEL (sciellin) expression [1, 3] | Modulated by BMS-A: ZBED2 expression [1, 3]
showed a reduction: reduction of PLAU mRNA expression (PLAU mRNA; LNCaP cells)
minimal: reduction of PLAU mRNA level, multiple-dose treatment study (PLAU mRNA; PC3 cells, 4 h, all doses vs untreated control)
decreased: Modulated by BMS-A (p < 0.05): AXL expression ([1]; gene AXL receptor tyrosine kinase (AXL), probe 202686_s_at, Gene No. 52, expressed in sensitive cell lines) | Modulated by BMS-A (p < 0.05): ANXA3 expression ([1]; gene annexin A3 (ANXA3), probe 209369_at, Gene No. 8, expressed in sensitive cell lines) | Modulated by BMS-A (p < 0.05): ARNTL2 expression ([1]; gene aryl hydrocarbon receptor nuclear translocator-like 2 (ARNTL2), probe 220658_s_at, Gene No. 100, expressed in sensitive cell lines) | Modulated by BMS-A (p < 0.05): CST6 expression ([1]; gene cystatin E/M (CST6), probe 206595_at, Gene No. 15, expressed in sensitive cell lines) | Modulated by BMS-A (p < 0.05): EREG expression ([1]; gene epiregulin (EREG), probe 205767_at, Gene No. 43, expressed in sensitive cell lines) | Modulated by BMS-A (p < 0.05): FHL2 expression ([1]; gene four and a half LIM domains 2 (FHL2), probe 202949_s_at, Gene No. 54, expressed in sensitive cell lines) | Modulated by BMS-A (p < 0.05): LAMC2 expression ([1]; gene laminin, gamma 2 (LAMC2), probe 202267_at, Gene No. 33, expressed in sensitive cell lines) | Modulated by BMS-A (p < 0.05): PLAU (uPA) expression ([1]; gene plasminogen activator, urokinase (PLAU, also referred to as uPA), probe 205479_s_at, Gene No. 63, expressed in sensitive cell lines) | Modulated by BMS-A (p < 0.05): SCEL expression ([1]; gene sciellin (SCEL), probe 206884_s_at, Gene No. 3, expressed in sensitive cell lines)
relatively mild reduction: reduction of PLAU mRNA expression (PLAU mRNA; PWR1E cells (CK5-expressing)) | reduction of PLAU mRNA expression (PLAU mRNA; RWPE2 cells (CK5-expressing))
approximately 50%: reduction of PLAU mRNA expression (PLAU mRNA; DU145 cells) | reduction of PLAU mRNA expression (PLAU mRNA; PC3 cells)
reduced: amount of uPA protein secreted into the growth medium [2]
